Reference: ChEMBL document CHEMBL3603804, “Cyclin dependent kinase (CDK) inhibitors as anticancer drugs” (Bioorg Med Chem Lett, 2015)
One block for each compound: values may come before it.

Assays:
[1] = biological target: T1, Cyclin-dependent kinase 1/cyclin B1 (Homo sapiens, UniProt P06493); test: Inhibition of recombinant CDK1/GST-fused cyclin B (unknown origin) expressed in baculovirus infected insect Sf9 cells by substrate phosphorylation assay in presence of [33P]-gamma adenosine triphosphate
T1 sequence (P06493 whole entry, the tested form may be a part): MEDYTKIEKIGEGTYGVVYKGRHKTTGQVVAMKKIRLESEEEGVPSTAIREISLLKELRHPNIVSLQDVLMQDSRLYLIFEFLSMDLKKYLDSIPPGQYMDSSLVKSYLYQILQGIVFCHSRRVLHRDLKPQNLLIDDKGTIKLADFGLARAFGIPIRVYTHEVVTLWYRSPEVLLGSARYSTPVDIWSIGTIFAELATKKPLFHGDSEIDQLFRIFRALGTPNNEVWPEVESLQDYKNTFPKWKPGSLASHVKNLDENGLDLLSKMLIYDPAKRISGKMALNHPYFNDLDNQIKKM
T1 sequence (P14635 whole entry, further chain, the tested form may be a part): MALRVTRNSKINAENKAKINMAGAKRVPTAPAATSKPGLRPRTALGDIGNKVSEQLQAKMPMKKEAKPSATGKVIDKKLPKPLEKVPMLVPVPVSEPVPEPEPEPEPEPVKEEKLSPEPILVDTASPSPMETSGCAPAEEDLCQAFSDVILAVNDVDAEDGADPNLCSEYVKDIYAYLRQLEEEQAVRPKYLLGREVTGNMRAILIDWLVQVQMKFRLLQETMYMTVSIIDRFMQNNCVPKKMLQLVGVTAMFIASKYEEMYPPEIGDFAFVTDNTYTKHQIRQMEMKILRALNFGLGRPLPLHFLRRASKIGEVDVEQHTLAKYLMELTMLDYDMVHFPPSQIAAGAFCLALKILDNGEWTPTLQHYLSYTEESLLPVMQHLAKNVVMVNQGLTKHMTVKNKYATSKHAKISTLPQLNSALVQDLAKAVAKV

[2] = test system: MCF7; test: Cytotoxicity against human MCF7 cells assessed as growth inhibition after 96 hrs; assay type: functional, cell-based; settings: MCF7, 96 h
[3] = biological target: T2, Cyclin-dependent kinase 2/cyclin E1 (Homo sapiens, UniProt P24941); test: Inhibition of recombinant CDK2/GST-fused cyclin E (unknown origin) expressed in baculovirus infected insect Sf9 cells by substrate phosphorylation assay in presence of [33P]-gamma adenosine triphosphate
[4] = biological target: Vascular endothelial growth factor receptor 2 (Homo sapiens, UniProt P35968); test: Inhibition of VEGFR2 (unknown origin)
Sequence of Vascular endothelial growth factor receptor 2 (P35968 whole entry): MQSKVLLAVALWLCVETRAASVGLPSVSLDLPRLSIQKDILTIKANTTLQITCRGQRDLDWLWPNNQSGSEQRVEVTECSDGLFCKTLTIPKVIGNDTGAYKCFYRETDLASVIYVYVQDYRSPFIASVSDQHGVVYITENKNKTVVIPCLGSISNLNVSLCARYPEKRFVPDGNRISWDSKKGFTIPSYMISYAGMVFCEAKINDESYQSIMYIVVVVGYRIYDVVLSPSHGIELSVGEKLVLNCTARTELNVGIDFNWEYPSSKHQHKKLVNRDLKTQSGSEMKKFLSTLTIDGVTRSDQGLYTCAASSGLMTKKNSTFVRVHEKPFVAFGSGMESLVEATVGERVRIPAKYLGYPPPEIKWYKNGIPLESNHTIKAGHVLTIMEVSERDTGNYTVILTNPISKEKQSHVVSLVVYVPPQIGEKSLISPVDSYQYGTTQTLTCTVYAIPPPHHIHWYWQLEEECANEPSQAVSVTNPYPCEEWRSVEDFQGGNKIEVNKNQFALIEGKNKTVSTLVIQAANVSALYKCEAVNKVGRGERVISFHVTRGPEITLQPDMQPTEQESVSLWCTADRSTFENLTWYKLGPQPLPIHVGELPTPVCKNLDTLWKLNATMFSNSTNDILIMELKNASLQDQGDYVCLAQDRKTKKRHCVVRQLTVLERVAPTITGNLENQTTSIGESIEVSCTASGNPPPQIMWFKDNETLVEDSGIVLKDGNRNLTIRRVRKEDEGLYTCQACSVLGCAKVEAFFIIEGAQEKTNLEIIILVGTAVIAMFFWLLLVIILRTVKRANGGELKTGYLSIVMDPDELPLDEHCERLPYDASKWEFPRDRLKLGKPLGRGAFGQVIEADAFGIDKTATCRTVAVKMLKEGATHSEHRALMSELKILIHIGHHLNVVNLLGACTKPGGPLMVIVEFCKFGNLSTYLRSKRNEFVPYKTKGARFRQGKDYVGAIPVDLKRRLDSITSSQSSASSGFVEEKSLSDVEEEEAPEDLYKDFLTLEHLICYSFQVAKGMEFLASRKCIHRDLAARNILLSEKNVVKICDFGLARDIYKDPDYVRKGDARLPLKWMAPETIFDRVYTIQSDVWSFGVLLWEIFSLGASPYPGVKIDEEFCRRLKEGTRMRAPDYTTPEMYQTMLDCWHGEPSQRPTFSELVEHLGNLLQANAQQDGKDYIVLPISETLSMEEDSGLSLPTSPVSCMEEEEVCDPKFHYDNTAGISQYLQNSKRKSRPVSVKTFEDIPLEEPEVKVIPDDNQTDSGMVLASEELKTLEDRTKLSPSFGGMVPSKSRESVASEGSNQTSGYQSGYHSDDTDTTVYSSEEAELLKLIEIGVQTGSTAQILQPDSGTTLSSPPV

[5] = biological target: T2, Cyclin-dependent kinase 2/cyclin E1; test: Inhibition of CDK2/cyclin E (unknown origin) expressed in baculovirus infected insect Sf9 cells assessed as inhibition of GST-tagged Rb phosphorylation after 30 mins in presence of [33P]-ATP
[6] = biological target: T3, Cyclin-dependent kinase 4/cyclin D1 (Homo sapiens, UniProt P11802); test: Inhibition of CDK4/cyclin D1 (unknown origin) expressed in baculovirus infected insect Sf9 cells assessed as inhibition of GST-tagged Rb phosphorylation after 30 mins in presence of [33P]-ATP
T3 sequence (P11802 whole entry): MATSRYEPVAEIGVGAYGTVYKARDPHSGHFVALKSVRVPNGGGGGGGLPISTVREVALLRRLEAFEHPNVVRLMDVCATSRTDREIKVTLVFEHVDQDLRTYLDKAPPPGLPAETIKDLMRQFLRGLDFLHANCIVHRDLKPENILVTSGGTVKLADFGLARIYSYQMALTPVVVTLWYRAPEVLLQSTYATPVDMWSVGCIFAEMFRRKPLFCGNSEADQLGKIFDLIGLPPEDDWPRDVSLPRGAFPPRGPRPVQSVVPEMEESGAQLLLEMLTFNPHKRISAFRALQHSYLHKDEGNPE
T3 sequence (P24385 whole entry, further chain): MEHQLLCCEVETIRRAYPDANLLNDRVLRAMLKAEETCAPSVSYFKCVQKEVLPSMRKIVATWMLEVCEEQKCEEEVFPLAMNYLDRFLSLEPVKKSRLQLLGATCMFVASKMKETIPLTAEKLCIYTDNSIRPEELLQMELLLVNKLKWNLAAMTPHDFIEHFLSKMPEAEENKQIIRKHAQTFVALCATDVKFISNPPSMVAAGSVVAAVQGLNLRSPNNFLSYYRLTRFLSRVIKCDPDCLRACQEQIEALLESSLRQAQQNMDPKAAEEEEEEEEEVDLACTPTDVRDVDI

[7] = Chemical stability of the compound in phosphate buffer assessed as remaining compound at pH 1.2 at 37 degC after 3 hrs; assay type: physicochemical; settings: read-out: Stability
[8] = test system: HCT-116; test: Cytotoxicity against human HCT116 cells assessed as growth inhibition after 3 days by MTT assay; assay type: functional, cell-based; settings: HCT-116, 72 h
[9] = biological target: T4, Cyclin-dependent kinase 2/cyclin A (Homo sapiens, UniProt P24941); test: Non-competitive inhibition of human CDK2/cyclinA using PKTPKKAKKL as substrate in presence of ATP; assay type: protein-complex assay
[10] = test system: MDA-MB-231; test: Cytotoxicity against human MDA-MB-231 cells; assay type: functional, cell-based
[11] = biological target: Carbonic anhydrase 2 (Homo sapiens, UniProt P00918); test: Inhibition of carbonic anhydrase-2 (unknown origin)
[12] = biological target: T3, Cyclin-dependent kinase 4/cyclin D1; test: Inhibition of human CDK4/cyclin D1 expressed in insect cells assessed as phosphorylation of CTRF after 50 mins by microplate scintillation counter
[13] = biological target: T1, Cyclin-dependent kinase 1/cyclin B1; assay type: protein-complex assay
[14] = biological target: T5, Cyclin-dependent kinase 4/6 (Homo sapiens, UniProt P11802+Q00534); test: Inhibition of CDK4/6 in human COLO205 cells assessed as maximum cell cycle arrest at G1 phase after 24 hrs by propidium iodide staining-based flow cytometric analysis; settings: COLO 205
T5 sequence (P11802 whole entry, looked up): as the sequence (P11802 whole entry) above
T5 sequence (Q00534 whole entry, looked up): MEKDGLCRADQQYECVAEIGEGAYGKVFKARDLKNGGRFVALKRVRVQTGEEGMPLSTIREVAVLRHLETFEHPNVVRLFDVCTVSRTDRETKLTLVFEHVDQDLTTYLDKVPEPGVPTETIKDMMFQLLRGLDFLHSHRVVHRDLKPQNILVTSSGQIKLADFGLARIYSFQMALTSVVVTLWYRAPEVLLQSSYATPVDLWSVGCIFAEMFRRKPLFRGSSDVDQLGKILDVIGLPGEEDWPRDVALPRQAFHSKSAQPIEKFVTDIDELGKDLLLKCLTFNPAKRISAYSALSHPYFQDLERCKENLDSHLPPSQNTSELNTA

[15] = biological target: T5, Cyclin-dependent kinase 4/6; test: Inhibition of CDK4/6 in human COLO205 cells assessed as inhibition of Rb phosphorylation after 24 hrs by propidium iodide staining-based laser-scanning fluorescence microplate cytometric analysis; assay type: cell-based; settings: colo 205
[16] = biological target: T4, Cyclin-dependent kinase 2/cyclin A; test: Competitive inhibition of human CDK2/cyclinA using PKTPKKAKKL as substrate in presence of ATP; assay type: protein-complex assay
[17] = test system: MDA-MB-468; test: Antiproliferative activity against Rb-negative human MDA-MB-468 cells assessed as inhibition of [14C]-thymidine incorporation into DNA preincubated for 24 hrs followed by [14C]-thymidine addition measured after 72 hrs by beta plate counting analysis; assay type: cell-based
[18] = test system: Jurkat; test: Cytotoxicity against human Jurkat cells assessed as cell viability after 72 hrs by resazurin assay; assay type: functional, cell-based

Structure (SMILES): C[C@@H](O)[C@@H](C)Oc1nc(Nc2ccc([S+](N)[O-])cc2)ncc1Br (stereo partly drawn)
- IC50 [1]: 4 nM
- IC50 [2]: 48 nM
- IC50 [3]: 9 nM
- IC50 [4]: 122 nM

Structure (SMILES): CC(C)(C)c1cc2c(N/N=C/c3nccs3)ncnc2s1
- IC50 [5]: 200 nM
- IC50 [6]: 41 nM
- remaining at 3 h [7]: 79%
- IC50 [8]: 419 nM

Structure (SMILES): C#CCNc1nc(Nc2ccccc2)ncc1Br
- IC50 [1]: 100 nM
- IC50 [2]: 4000 nM
- IC50 [3]: 100 nM

Structure (SMILES): C[C@H](CO)Nc1nc(Nc2ccc(S(N)(=O)=O)cc2)ncc1Br
- IC50 [11]: 514 nM
- IC50 [1]: 500 nM
- IC50 [2]: 266 nM
- IC50 [3]: 4 nM
- IC50 [4]: 34 nM

Structure (SMILES): N[S+]([O-])c1ccc(/N=N/c2ccc(O)[nH]c2=O)cc1 (stereo not drawn)
- IC50 [16]: 45000 nM

Structure (SMILES): CC[S@@](=N)(=O)c1ccc(Nc2ncc(Br)c(N[C@H](C)[C@@H](C)O)n2)cc1
- IC50 [11]: > 10000 nM
- IC50 [1]: 3 nM
- IC50 [2]: 44 nM
- IC50 [3]: 2 nM
- IC50 [4]: 32 nM

Structure (SMILES): CN(C)C/C=C/C(=O)Nc1ccc(C(=O)Nc2cccc(Nc3ncc(Cl)c(-c4c[nH]c5ccccc45)n3)c2)cc1
- IC50 [18]: 50 nM

Structure (SMILES): C[C@@H](O)[C@@H](C)Nc1nc(Nc2ccc([S+](N)[O-])cc2)ncc1Br (stereo partly drawn)
- IC50 [11]: 403 nM
- IC50 [1]: 10 nM
- IC50 [2]: 30 nM
- IC50 [3]: 10 nM
- IC50 [4]: 59 nM

Structure (SMILES): CC(N)c1csc(/C=N/Nc2ncnc3sc(C(C)C(C)C)cc23)n1 (stereo not drawn)
- IC50 [5]: 880 nM
- IC50 [6]: 22 nM
- remaining at 3 h [7]: 83%
- IC50 [8]: 315 nM

Structure (SMILES): C[C@@H](O)[C@@H](C)Oc1nc(Nc2ccc(S(=N)(=O)C3CC3)cc2)ncc1C(F)(F)F (stereo partly drawn) [RONICICLIB]
- IC50 [2]: 15 nM

Structure (SMILES): CC(N)c1csc(/C=N/Nc2ncnc3sc(C(C)(C)C)cc23)n1 (stereo not drawn)
- IC50 [5]: 830 nM
- IC50 [6]: 19 nM
- remaining at 3 h [7]: 81%
- IC50 [8]: 177 nM

Structure (SMILES): COc1ccc(Nc2nccc(-c3ccc4nc(C)n(C(C)C)c4c3)n2)cc1
- IC50 [12]: 4 nM
- IC50 [13]: 4 nM

More lines, main results first:

- IC50 [9]: 27000 nM
Structure (SMILES): CC(Nc1cc(N2CCOCC2)ccc1[N+](=O)[O-])C12CC3CC(CC(C3)C1)C2 (stereo not drawn)
- IC50 [10]: > 50000 nM

- IC50 [12]: 2 nM
- IC50 [13]: 222 nM
- INH [14]: 0.2 µM
- IC50 [15]: 42 nM
Structure (SMILES): Cc1nc2ccc(-c3ccnc(Nc4ccc(N5CCNCC5)cn4)n3)cc2n1C(C)C

- IC50 [11]: > 10000 nM
Structure (SMILES): C[C@@H](O)[C@@H](C)Oc1nc(Nc2ccc([S@](=N)(=O)C3CC3)cc2)ncc1C(F)(F)F [RONICICLIB]

- IC50 [17]: > 3000 nM
Structure (SMILES): CC(=O)c1c(C)c2cnc(Nc3ccc(N4CCNCC4)cn3)nc2n(C2CCCC2)c1=O [PALBOCICLIB]

- IC50 [9]: 71000 nM
Structure (SMILES): CC1=C(C(=O)OC2CCCCC2)C(c2ccc([N+](=O)[O-])cc2)C2=C(CC(C)(C)CC2=O)N1 (stereo not drawn)
- IC50 [10]: 4000 nM

- IC50 [12]: 2 nM
- IC50 [13]: 1010 nM
- INH [14]: 2.2 µM
- IC50 [15]: 89 nM
Structure (SMILES): Cc1nc2ccc(-c3ccnc(Nc4ccc(CN5CCN(C(C)C)CC5)cn4)n3)cc2n1C(C)C
